Data published in patent US20050221987A1, “Use of certain phospholipids to deliver hormonal effects to plants” (priority 2004, published 2005).
“And” between values parts separate entries of the source, which are not always exact repeats. Equal entries are not always repeated.

What was measured:
radish cotyledons [1] = assay: Radish cotyledon bioassay (kinetin-induced expansion growth and chlorophyll content); type: in vivo, Raphanus sativus L. cv. Cherry-Belle; settings: for Type of hormone-like activity: radish cotyledon bioassay
Protocol: Radish cotyledon bioassay. The radish cotyledon bioassay was essentially as described by Letham D S (1971) Physiologia Plantarum 25:391-396, which is herein incorporated by reference in its entirety. Seeds of Raphanus sativus L. cv. Cherry-Belle were germinated in darkness at 25° C. for 36 hours in Petri dishes containing filter paper wetted with distilled water. The smaller of the two cotyledons was excised, the fresh weight determined, and 10 cotyledons placed adaxial side down on filter paper in Petri dishes containing potassium phosphate buffer (2 mM, pH 6.0) with kinetin (0.2 mg/L, added to simulate natural growing conditions) and the compounds to be tested at 20 mg/L. Cotyledons were then incubated under continuous illumination up to 72 hours at 25° C. and the increase in fresh weight determined. Chlorophyll content was determined after extraction of tissue into 80% ethanol (containing butylated hydroxytoluene, 10 mg/L) and quantified spectrophotometrically using the equations Chl a=(13.95A663)−(6.88A647) and Chl b=(24.96A652)−(7.32A663) as described by Lichtenthal H K (1987) Methods in Enzymology 148:350-382, which is herein incorporated by reference in its entirety.

radish hypocotyls = assay: Radish hypocotyl bioassay for anthocyanins; type: in vivo, Raphanus sativus L. cv. Cherry-Belle
Protocol: Radish hypocotyl bioassay for anthocyanins. An anthocyanin bioassay was developed using intact germinated seeds of radish (Raphanus sativus L. cv. Cherry-Belle). Seeds of radish were germinated in darkness at 25° C. for 40 hours in Petri dishes containing filter paper wetted with distilled water. Whole seedlings were transferred to Petri dishes containing the test solutions in potassium phosphate buffer (2 mM, pH 6.0 containing 0.2 mg/L kinetin to simulate natural growing conditions). The seedlings were incubated under bright light for 28 h prior to extraction of hypocotyl tissue and spectrophotometric quantification of anthocyanins. Anthocyanin content was determined spectrophotometrically after tissue extraction into 99 parts ethanol and 1 part concentrated HCl. The absorbance of the acidic ethanol fraction was measured at 510 nm and the final anthocyanin content calculated using an extinction coefficient of 31.76 mmol cm^−1 for raphanisuns (Ishikura N. and Hayashi K. Chromatographic separation and characterization of the component anthocyanins in radish root. Botanical Magazine Tokyo 76:6-13, 1963, which is herein incorporated by reference in its entirety).

Bolivian Rainbow Peppers = assay: Color impact on hot pepper (greenhouse); type: in vivo
Protocol: The color impact of NALPE-2 on hot pepper. Potted ornamental peppers (var. Bolivian Rainbow Peppers) in laboratory greenhouses located in Middleton, Wis. were treated with NALPE-2 (50 mg/L). […] 40-50 fruits were tagged and labeled. The pepper color stage was noted prior to application and two plants were used. Ambient conditions in the greenhouse at the time of application were about 80° F. and 70% relative humidity. Drying time was approximately 0.5 hr. After 14 days the peppers were harvested and color group sorting was performed.

[2] = system: Hydroponic tomatoes (var. Trust); assay: Color impact on tomato (greenhouse spray); type: in vivo
Protocol: The color impact of NALPE-2 on tomato. Hydroponic tomatoes (var. Trust) in a commercial greenhouse located in Arena, Wis. were treated with NALPE-2 (50 mg/L) using a hand pump spray bottle. Five tomato clusters each with 3-5 fruit in the early ripening stages (breaker) were used. The clusters were sprayed such that little overspray left the immediate area as to not contaminate other vines. Ambient conditions in the greenhouse at the time of application were about 75° F. and 70% relative humidity, full sun. Drying time was approximately 0.5 hr. Fruit were harvested after 7 days and transported to the laboratory for visual color comparison.

radish cotyledons [3] = assay: Radish cotyledon bioassay (kinetin-induced expansion growth and chlorophyll content); type: in vivo, Raphanus sativus L. cv. Cherry-Belle; settings: kinetin 0.2 mg/l, 72 hours; for Change in fresh weight: n = 9
[4] = NALPE-2 50 mg/L applied 14 days prior to harvest, Bolivian Rainbow Peppers
[5] = NALPE-2 50 mg/L applied 7 days prior to harvest, tomatoes
[6] = NAPE-2 20 mg/L, kinetin 0.2 mg/l, 72 hours

## N-acetyl lysophosphatidylethanolamine [NALPE-2]
Radish cotyledons [1]; NALPE-2 20 mg/l, kinetin 0.2 mg/l, 72 hours
  Change in fresh weight, % of control: 66 % of control
Radish cotyledons [1]; NALPE-2 20 mg/l, kinetin 0.2 mg/l, 72 hours, n = 9
  Change in fresh weight: 9.88 ± 4.93 mg
Radish cotyledons [1]; Table 2, dependent upon concentration
  Effect on expansion growth of radish cotyledons: inhibitory activity
Radish cotyledons [1]
  Type of hormone-like activity: ethylene-like activity
Radish hypocotyls; NALPE-2 15 mg/l, kinetin 0.2 mg/l, 25° C., 28 hours, n = 4
  Anthocyanin: 2.637 ± 0.005 μg/hypocotyl
Radish hypocotyls; NALPE-2 15 mg/l, kinetin 0.2 mg/l, 28 hours
  Anthocyanin, % of control: 125 % of control
Radish hypocotyls; summary of Table 3
  Effect on anthocyanin pigment in radish hypocotyls: enhanced the amount of anthocyanin pigment
Bolivian Rainbow Peppers; [4]
  Color Stage Blue: 22%
  Color Stage Orange: 20%
  Color Stage Purple: 19%
  Color Stage Red: 32%
  Color Stage Yellow: 6%
Bolivian Rainbow Peppers; Table 5
  Effect on color development in hot peppers: accelerated color development
[2]; [5]
  Color Stage Light Red: 17%
  Color Stage Others (breaker, turning, and pink stage): 16%
  Color Stage Red: 67%
[2]; text summary of Table 4
  Effect on color development in tomatoes: accelerated color development
Radish cotyledons [3]; NALPE-2 0.2 mg/l
  Change in fresh weight, % of control: 92 % of control
  Change in fresh weight: 13.68 ± 4.79 mg
Radish cotyledons [3]; NALPE-2 200 mg/l
  Change in fresh weight, % of control: 58 % of control
  Change in fresh weight: 8.64 ± 5.46 mg

## N-acetylphosphatidylethanolamine [NAPE-2]
Radish cotyledons [1]
  Effect on total amount of chlorophyll during radish cotyledon expansion: did not change the total amount of chlorophyll
  Type of hormone-like activity: cytokinin-like activity
Radish cotyledons [1]; NAPE-2 20 mg/L, kinetin 0.2 mg/l, 2 mM PB pH 6.0, 25° C., 72 hours, n = 3
  Change in fresh weight: 18.90 ± 1.74 mg and 21.37 ± 1.09 mg and 22.52 ± 3.42 mg
Radish cotyledons [1]; [6]
  Change in fresh weight, % of control: 110 % of control and 108 % of control
  Chlorophyll a/b: 1.82
Radish cotyledons [1]; summary of Table 1
  Increase of cotyledon fresh weight: about 10%
